Assay results taken from PubChem BioAssay (NCI).
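The compound was tested at five concentrations on cells cultured in 96-well plates, with a 48-hour exposure period. At the GI50, growth is halved. TGI marks complete inhibition of growth.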

Legend:
Assay in all cases: inhibition of tumour cell growth, NCI panel, 48 h
[1] = tested on: SK-MEL-2 melanoma
[2] = tested on: LOX IMVI melanoma
[3] = tested on: SF-268 CNS
[4] = tested on: MALME-3M melanoma
[5] = tested on: MOLT-4 leukemia
[6] = tested on: UACC-257 melanoma
[7] = tested on: HOP-62 NSCLC
[8] = tested on: T-47D breast
[9] = tested on: OVCAR-8 ovarian
[10] = tested on: MDA-MB-231 breast
[11] = tested on: HCT-116 colon
[12] = tested on: OVCAR-4 ovarian
[13] = tested on: SNB-19 CNS
[14] = tested on: NCI-H460 lung
[15] = tested on: EKVX NSCLC
[16] = tested on: SR leukemia
[17] = tested on: SW-620 colon
[18] = tested on: SK-OV-3 ovarian
[19] = tested on: BT-549 breast
[20] = tested on: CAKI-1 renal
[21] = tested on: 786-0 renal
[22] = tested on: HL-60(TB) leukemia
[23] = tested on: M14 melanoma
[24] = tested on: NCI-H226 lung
[25] = tested on: RPMI-8226 leukemia
[26] = tested on: HCT-15 colon
[27] = tested on: K-562 leukemia
[28] = tested on: A549 NSCLC
[29] = tested on: NCI-H23 lung
[30] = tested on: HS 578T breast
[31] = tested on: UACC-62 melanoma
[32] = tested on: A498 renal
[33] = tested on: SK-MEL-28 melanoma
[34] = tested on: UO-31 renal
[35] = tested on: U251 CNS
[36] = tested on: MCF7 breast
[37] = tested on: ACHN renal
[38] = tested on: SF-295 CNS
[39] = tested on: OVCAR-3 ovarian
[40] = tested on: MDA-MB-435
[41] = tested on: SF-539 CNS
[42] = tested on: PC-3 prostate
[43] = tested on: SK-MEL-5 melanoma
[44] = tested on: HOP-92 NSCLC
[45] = tested on: TK-10 renal
[46] = tested on: OVCAR-5 ovarian
[47] = tested on: SN12C renal
[48] = tested on: RXF 393 renal
[49] = tested on: DU-145 prostate
[50] = tested on: COLO 205 colon
[51] = tested on: CCRF-CEM leukemia
[52] = tested on: SNB-75 CNS
[53] = tested on: NCI-H522 lung
[54] = tested on: KM12 colon
[55] = tested on: HT29 colon
[56] = tested on: HCC-2998 colon
[57] = tested on: IGROV1 ovarian
[58] = tested on: NCI/ADR-RES ovarian

`Nc1nc(-c2ccc3c(c2)/C(=C\c2cc(Br)c(O)c(Br)c2)C(=O)N3)cs1` was tested, and the GI50 [1] was 6.96 µM, the TGI [1] was > 17.6 µM and the GI50 [2] was 7.84 µM. The TGI [2] was > 25 µM, the GI50 [3] was 16.3 µM and the TGI [3] was > 25 µM. It also gave a GI50 [4] of 5.95 µM, a TGI [4] of 17.4 µM and a GI50 [5] of 16.2 µM. For the same molecule, the TGI [5] was > 25 µM, the GI50 [6] was 5.57 µM and the TGI [6] was 14.4 µM. For the same molecule, the GI50 [7] was > 17 µM, the TGI [7] was > 25 µM and the GI50 [8] was 15.1 µM. For the same molecule, the TGI [8] was > 25 µM, the GI50 [9] was > 25 µM and the TGI [9] was > 25 µM. The GI50 [10] was 17.3 µM, the TGI [10] was > 25 µM and the GI50 [11] was 12.9 µM. The TGI [11] was > 25 µM, the GI50 [12] was > 25 µM and the TGI [12] was > 25 µM. For the same molecule, the GI50 [13] was > 25 µM, the TGI [13] was > 25 µM and the GI50 [14] was 16.4 µM. For the same molecule, the TGI [14] was > 25 µM, the GI50 [15] was > 25 µM and the TGI [15] was > 25 µM. For the same molecule, the GI50 [16] was 11.3 µM, the TGI [16] was > 25 µM and the GI50 [17] was 10.6 µM. For the same molecule, the TGI [17] was > 25 µM, the GI50 [18] was 17.9 µM and the TGI [18] was > 25 µM. The GI50 [19] was 11.4 µM, the TGI [19] was > 23.8 µM and the GI50 [20] was > 25 µM. For the same molecule, the TGI [20] was > 25 µM, the GI50 [21] was 14.1 µM and the TGI [21] was > 25 µM. For the same molecule, the GI50 [22] was 8.91 µM, the TGI [22] was > 22.6 µM and the GI50 [23] was 5.02 µM. For the same molecule, the TGI [23] was 11.8 µM, the GI50 [24] was > 25 µM and the TGI [24] was > 25 µM. The GI50 [25] was 14.9 µM, the TGI [25] was > 25 µM and the GI50 [26] was > 20.2 µM. The TGI [26] was > 25 µM, the GI50 [27] was 10.6 µM and the TGI [27] was > 25 µM. The GI50 [28] was > 25 µM, the TGI [28] was > 25 µM and the GI50 [29] was 14.3 µM. The TGI [29] was > 25 µM, the GI50 [30] was 9.98 µM and the TGI [30] was > 25 µM. The GI50 [31] was 6.89 µM, the TGI [31] was 23.7 µM and the GI50 [32] was 5.57 µM. For the same molecule, the TGI [32] was 16.5 µM, the GI50 [33] was 7.99 µM and the TGI [33] was > 25 µM. The GI50 [34] was 19.1 µM, the TGI [34] was > 25 µM and the GI50 [35] was 12.8 µM. The TGI [35] was > 25 µM, the GI50 [36] was 12.8 µM and the TGI [36] was > 25 µM. The GI50 [37] was > 23.9 µM, the TGI [37] was > 25 µM and the GI50 [38] was 10.1 µM. The TGI [38] was > 25 µM, the GI50 [39] was 8.14 µM and the TGI [39] was 20.4 µM. The GI50 [40] was 4.68 µM, the TGI [40] was 12 µM and the GI50 [41] was 11.9 µM. The TGI [41] was > 25 µM, the GI50 [42] was 13.6 µM and the TGI [42] was > 25 µM. For the same molecule, the GI50 [43] was 5.4 µM, the TGI [43] was 12.1 µM and the GI50 [44] was 9.19 µM. For the same molecule, the TGI [44] was > 25 µM, the GI50 [45] was > 25 µM and the TGI [45] was > 25 µM. The GI50 [46] was > 25 µM, the TGI [46] was > 25 µM and the GI50 [47] was > 25 µM. For the same molecule, the TGI [47] was > 25 µM, the GI50 [48] was 12.5 µM and the TGI [48] was > 25 µM. The GI50 [49] was 18.6 µM, the TGI [49] was > 25 µM and the GI50 [50] was 15.1 µM. For the same molecule, the TGI [50] was > 25 µM, the GI50 [51] was 9.36 µM and the TGI [51] was > 25 µM. The GI50 [52] was 11.8 µM, the TGI [52] was > 25 µM and the GI50 [53] was 8.12 µM. For the same molecule, the TGI [53] was 19.4 µM, the GI50 [54] was 10.4 µM and the TGI [54] was > 25 µM. For the same molecule, the GI50 [55] was 11.2 µM, the TGI [55] was > 25 µM and the GI50 [56] was 17.8 µM. For the same molecule, the TGI [56] was > 25 µM, the GI50 [57] was > 25 µM and the TGI [57] was > 25 µM. For the same molecule, the GI50 [58] was > 23.4 µM and the TGI [58] was > 25 µM.
With `N#C/C(=C\c1ccc[nH]1)c1cc(-c2ccc(Cl)cc2)nn1-c1ccccc1` the GI50 [1] was 8.65 µM, the TGI [1] was 34.6 µM and the GI50 [2] was 4.9 µM. The TGI [2] was 16.8 µM, the GI50 [3] was 4.05 µM and the TGI [3] was 18.3 µM. For the same molecule, the GI50 [4] was 3.05 µM, the TGI [4] was 17.2 µM and the GI50 [5] was 2.52 µM. For the same molecule, the TGI [5] was 8.23 µM, the GI50 [6] was 10.9 µM and the TGI [6] was 35.8 µM. For the same molecule, the GI50 [7] was 7.63 µM, the TGI [7] was 24.2 µM and the GI50 [8] was 1.56 µM. The TGI [8] was 13.1 µM, the GI50 [9] was 11.5 µM and the TGI [9] was > 100 µM. The GI50 [10] was 5.78 µM, the TGI [10] was 33 µM and the GI50 [11] was 3.28 µM. The TGI [11] was 12.8 µM, the GI50 [12] was 1.73 µM and the TGI [12] was > 56.3 µM. For the same molecule, the GI50 [13] was 9.35 µM, the TGI [13] was > 56.9 µM and the GI50 [14] was 3.43 µM. The TGI [14] was 13.3 µM, the GI50 [15] was 2.89 µM and the TGI [15] was > 100 µM. It also gave a GI50 [16] of 1.97 µM, a TGI [16] of 6.28 µM and a GI50 [17] of 3.75 µM. The TGI [17] was > 41.8 µM, the GI50 [18] was 7.88 µM and the TGI [18] was 40.2 µM. It also gave a GI50 [19] of 4.72 µM, a TGI [19] of 15.7 µM and a GI50 [20] of 3.16 µM. The TGI [20] was > 100 µM, the GI50 [21] was 6.06 µM and the TGI [21] was 27.5 µM. It also gave a GI50 [22] of 4.36 µM, a TGI [22] of 29.3 µM and a GI50 [23] of 4.09 µM. It also gave a TGI [23] of 14.8 µM, a GI50 [24] of 7.71 µM and a TGI [24] of 37.2 µM. The GI50 [25] was 2.48 µM, the TGI [25] was 9.77 µM and the GI50 [26] was 5.37 µM. The TGI [26] was 25.1 µM, the GI50 [27] was 3.24 µM and the TGI [27] was 10.9 µM. For the same molecule, the GI50 [28] was 6.92 µM, the TGI [28] was > 64.7 µM and the GI50 [29] was 4.19 µM. The TGI [29] was 22.1 µM, the GI50 [30] was 2.17 µM and the TGI [30] was 14.1 µM. For the same molecule, the GI50 [31] was 7.39 µM, the TGI [31] was 28.2 µM and the GI50 [32] was 2.62 µM. It also gave a TGI [32] of 12.6 µM, a GI50 [33] of 4.57 µM and a TGI [33] of 17.5 µM. The GI50 [34] was 3.82 µM, the TGI [34] was 31 µM and the GI50 [35] was 7.07 µM. It also gave a TGI [35] of 24 µM, a GI50 [36] of 0.449 µM and a TGI [36] of 19.7 µM. For the same molecule, the GI50 [37] was 5.55 µM, the TGI [37] was 47.5 µM and the GI50 [38] was 2.8 µM. It also gave a TGI [38] of 13 µM, a GI50 [39] of 2.37 µM and a TGI [39] of 8.69 µM. It also gave a GI50 [40] of 2.7 µM, a TGI [40] of 13.2 µM and a GI50 [41] of 6.05 µM. The TGI [41] was 18.9 µM, the GI50 [42] was 3.12 µM and the TGI [42] was 23.1 µM. It also gave a GI50 [43] of 6.47 µM, a TGI [43] of 19.4 µM and a GI50 [44] of 2.54 µM. For the same molecule, the TGI [44] was 10.2 µM, the GI50 [45] was 3.12 µM and the TGI [45] was 21.1 µM. It also gave a GI50 [46] of 15.7 µM, a TGI [46] of 50.3 µM and a GI50 [47] of 5.87 µM. For the same molecule, the TGI [47] was > 48 µM, the GI50 [48] was 6.89 µM and the TGI [48] was 24.2 µM. The GI50 [49] was 3.81 µM, the TGI [49] was > 40.7 µM and the GI50 [50] was 3.16 µM. It also gave a TGI [50] of 8.17 µM, a GI50 [51] of 3.59 µM and a TGI [51] of 22 µM. For the same molecule, the GI50 [52] was 2.29 µM, the TGI [52] was 16 µM and the GI50 [53] was 5.19 µM. For the same molecule, the TGI [53] was 29.4 µM, the GI50 [54] was 2.68 µM and the TGI [54] was 11.6 µM. The GI50 [55] was 3.31 µM, the TGI [55] was 13 µM and the GI50 [56] was 3.5 µM. For the same molecule, the TGI [56] was 12.4 µM, the GI50 [57] was 14 µM and the TGI [57] was > 95.4 µM. The GI50 [58] was 3.93 µM and the TGI [58] was > 31.4 µM.
